target: T1, Jak3 (Homo sapiens, UniProt P52333); test: Jak3 Kinase Assay (HTRF); format: biochemical; conditions: GST-Jak3 catalytic domain, 1 μM ATP, 60-min incubation; read-out: Jak3 Kinase, IC50 representation
T1 construct: A fragment encoding the catalytic domain of Jak3 (508aa to 1124aa) was ligated with GST at 5′ end; made in house; host or cells: Sf9 insect cells (baculovirus, pFastBac 1)
T1 sequence (P52333 508-1124): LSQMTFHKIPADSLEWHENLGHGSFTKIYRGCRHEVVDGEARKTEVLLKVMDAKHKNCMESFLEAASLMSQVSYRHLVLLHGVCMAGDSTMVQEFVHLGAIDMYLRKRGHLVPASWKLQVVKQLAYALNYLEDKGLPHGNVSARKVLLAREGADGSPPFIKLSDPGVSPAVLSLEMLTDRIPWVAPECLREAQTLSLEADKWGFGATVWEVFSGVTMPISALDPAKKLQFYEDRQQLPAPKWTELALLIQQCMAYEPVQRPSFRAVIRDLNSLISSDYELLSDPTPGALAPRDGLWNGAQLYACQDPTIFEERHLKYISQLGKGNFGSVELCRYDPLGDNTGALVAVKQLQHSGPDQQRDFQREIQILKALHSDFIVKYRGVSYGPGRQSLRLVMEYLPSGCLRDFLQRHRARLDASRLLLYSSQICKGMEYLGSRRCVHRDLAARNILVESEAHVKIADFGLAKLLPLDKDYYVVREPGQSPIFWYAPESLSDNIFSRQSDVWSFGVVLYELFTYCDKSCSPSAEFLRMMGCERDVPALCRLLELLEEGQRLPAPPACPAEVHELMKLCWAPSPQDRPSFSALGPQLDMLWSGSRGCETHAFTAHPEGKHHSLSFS
Description: Human Jak3 cDNA was amplified by PCR. A fragment encoding the catalytic domain of Jak3 (508aa to 1124aa) was ligated with GST at 5′ end. This fused GST-Jak3 DNA fragment was cloned into the EcoRI site of the donor plasmid pFastBac 1 (Life Technologies #10359-016). The transformation, transposition, and transfection of insect cells (Sf9) were performed according to the manufacture's instructions. The cell lysate containing recombinant GST-Jak3 was used in the kinase assay. Anti-GST antibody (10 μg/ml, Sigma #G1417) was coated onto a 384-well plate at 4° C. overnight. Cell lysate containing GST-Jak3 (1:100 dilution) was added to the anti-GST coated plates, and GST-Jak3 was captured by immobilized anti-GST antibody. Testing compounds and substrate mix (50 mM HEPES, pH 7, 0.5 mM Na3VO4, 25 mM MgCl2, 1 mM DTT, 0.005% BSA, 1 μM ATP, and 4.5 μg/ml biotinyl poly-Glu,Ala,Tyr) were added to the plate to initiate the reaction. After a 60-min incubation, the reaction was stopped by 4 mM EDTA, and phosphorylation of biotinyl poly-Glu,Ala,Tyr was detected using 17 μg/ml Cy5-streptavidin (Amersham, #PA92005) and 2.7 μg/ml Europium-conjugated anti-phosphotyrosine antibody (PerkinElmer #AD0069) using homogeneous time-resolved fluorescence (HTRF) technology.

O=c1[nH]c2c(-c3cn[nH]c3)nc(-n3cnc4ccc(F)cc43)nc2n1C1CCOCC1 and Cn1cc(-c2nc(-n3cnc4ccc(F)cc43)nc3c2[nH]c(=O)n3C2CCOCC2)cn1 cannot be ordered by IC50: under 100 nM for the first, under 100 nM for the second.

C[C@H](Nc1nc(-n2cnc3ccc(F)cc32)nc2c1[nH]c(=O)n2C1CCOCC1)c1ccccc1 and Cc1cccc(-c2nc(-n3cnc4ccc(F)cc43)nc3c2[nH]c(=O)n3C2CCOCC2)c1 fall in the same range of IC50: 100 to 1000 nM for the first, 100 to 1000 nM for the second.

O=c1[nH]c2c(N3CC(O)C3)nc(-n3cnc4ccc(F)cc43)nc2n1C1CCOCC1 and O=c1[nH]c2c(N3CCC3)nc(-n3cnc4ccc(F)cc43)nc2n1C1CCOCC1 cannot be ordered by IC50: under 100 nM for the first, under 100 nM for the second.

Cn1c(=O)n(C2CCOCC2)c2nc(-n3cnc4ccc(Cl)cc43)nc(N3CC(F)(F)C3)c21 and Cn1c(=O)n([C@H]2CC[C@H](O)CC2)c2nc(-n3cnc4ccc(Cl)cc43)nc(N3CC(F)(F)C3)c21 cannot be ordered by IC50: under 100 nM for the first, under 100 nM for the second.

CN1CCC(Nc2nc(-n3cnc4ccc(C#N)cc43)nc3c2[nH]c(=O)n3C2CCOCC2)CC1 and N#Cc1ccc2ncn(-c3nc(NC4CCC4)c4[nH]c(=O)n(C5CCOCC5)c4n3)c2c1 cannot be ordered by IC50: under 100 nM for the first, under 100 nM for the second.

Going from N#CCCCc1nc(-n2cnc3ccc(F)cc32)nc2c1[nH]c(=O)n2[C@@H]1CCOc2c(F)cccc21 to CCCCc1nc(-n2cnc3ccc(F)cc32)nc2c1[nH]c(=O)n2[C@@H]1CCOc2c(F)cccc21, the IC50 rises from under 100 nM to over 1000 nM. The first is the more potent here.

First: O=C(O)c1nc(-n2cnc3ccc(F)cc32)nc2c1[nH]c(=O)n2C1CCOCC1
Second: CNC(=O)c1nc(-n2cnc3ccc(F)cc32)nc2c1[nH]c(=O)n2C1CCOCC1
The IC50 of the first is higher: 100 to 1000 nM for the first, under 100 nM for the second.

CN1CCN(c2nc(-n3cnc4ccc(C#N)cc43)nc3c2[nH]c(=O)n3C2CCOCC2)CC1 and N#Cc1ccc2ncn(-c3nc(N4CCNCC4)c4[nH]c(=O)n(C5CCOCC5)c4n3)c2c1 cannot be ordered by IC50: under 100 nM for the first, under 100 nM for the second.

First: CCC(C)c1nc(-n2cnc3ccc(F)cc32)nc2c1[nH]c(=O)n2[C@@H]1CCOc2c(F)cccc21 (some centres unmarked)
Second: O=c1[nH]c2c(NCC3CC3)nc(-n3cnc4ccc(F)cc43)nc2n1[C@@H]1CCOc2c(F)cccc21
The IC50 of the first is higher: over 1000 nM for the first, 100 to 1000 nM for the second.

Compared with CCc1noc(CNc2nc(-n3cnc4ccc(F)cc43)nc3c2[nH]c(=O)n3C2CCOCC2)n1, CCOC(=O)c1nc(-n2cnc3ccc(F)cc32)nc2c1[nH]c(=O)n2C1CCOCC1 is higher in IC50: under 100 nM for the first, 100 to 1000 nM for the second.

First: O=c1[nH]c2c(N3CCCCC3)nc(-n3cnc4ccc(F)cc43)nc2n1C1CCOCC1
Second: O=C(c1nc(-n2cnc3ccc(F)cc32)nc2c1[nH]c(=O)n2C1CCOCC1)N1CCCCC1
The IC50 of the first is lower: under 100 nM for the first, 100 to 1000 nM for the second. The first is the more potent here.

O=c1[nH]c2c(-c3cccc(Cl)c3)nc(-n3cnc4ccc(F)cc43)nc2n1C1CCOCC1 and O=c1[nH]c2c(-c3ccc(F)cc3)nc(-n3cnc4ccc(F)cc43)nc2n1C1CCOCC1 fall in the same range of IC50: 100 to 1000 nM for the first, 100 to 1000 nM for the second.

First: O=c1[nH]c2c(N3CCC3)nc(-n3cnc4ccc(Cl)cc43)nc2n1C1CCOCC1
Second: CC1CCN(c2nc(-n3cnc4ccc(Cl)cc43)nc3c2[nH]c(=O)n3C2CCOCC2)CC1
The IC50 of the first is lower: under 100 nM for the first, 100 to 1000 nM for the second.

CNC(=O)c1nc(-n2cnc3ccc(F)cc32)nc2c1[nH]c(=O)n2C1CCOc2ccccc21 (centres unmarked) and N#CCNC(=O)c1nc(-n2cnc3ccc(F)cc32)nc2c1[nH]c(=O)n2C1CCOc2ccccc21 (centres unmarked) cannot be ordered by IC50: under 100 nM for the first, under 100 nM for the second.

First: O=c1[nH]c2c(N[C@@H]3CCC[C@@H]3O)nc(-n3cnc4ccc(F)cc43)nc2n1C1CCOCC1
Second: O=c1[nH]c2c(C3CCC3)nc(-n3cnc4ccc(F)cc43)nc2n1C1CCOCC1
The IC50 of the first is lower: under 100 nM for the first, 100 to 1000 nM for the second.

First: CC(C)(C)OC(=O)N1CC(Nc2nc(-n3cnc4ccc(F)cc43)nc3c2[nH]c(=O)n3C2CCOCC2)C1
Second: O=c1[nH]c2c(OCC3CC3)nc(-n3cnc4ccc(F)cc43)nc2n1C1CCOCC1
The IC50 of the first is lower: under 100 nM for the first, 100 to 1000 nM for the second.

NC(=O)C1CCN(c2nc(-n3cnc4ccc(Cl)cc43)nc3c2[nH]c(=O)n3C2CCOCC2)CC1 and NC(=O)C1CCN(c2nc(-n3cnc4ccc(F)cc43)nc3c2[nH]c(=O)n3C2CCOCC2)CC1 cannot be ordered by IC50: under 100 nM for the first, under 100 nM for the second.

Cn1c(=O)n([C@H]2CC[C@H](O)CC2)c2nc(-n3cnc4ccc(F)cc43)nc(N3CCCCC3)c21 and Cn1c(=O)n([C@H]2CC[C@H](O)CC2)c2nc(-n3cnc4ccc(F)cc43)nc(N3CCCC3)c21 cannot be ordered by IC50: under 100 nM for the first, under 100 nM for the second.

O=c1[nH]c2c(N3CC(F)(F)C3)nc(-n3cnc4ccc(Cl)cc43)nc2n1C1CCOCC1 and O=c1[nH]c2c(N3CC(F)(F)C3)nc(-n3cnc4ccc(F)cc43)nc2n1C1CCOCC1 cannot be ordered by IC50: under 100 nM for the first, under 100 nM for the second.

Cn1c(=O)n([C@H]2CC[C@H](O)CC2)c2nc(-n3cnc4ccc(C#N)cc43)nc(N3CC(F)(F)C3)c21 and N#Cc1ccc2ncn(-c3nc(N4CC(F)(F)C4)c4[nH]c(=O)n([C@H]5CC[C@H](O)CC5)c4n3)c2c1 cannot be ordered by IC50: under 100 nM for the first, under 100 nM for the second.

O=c1[nH]c2c(-c3ccncc3)nc(-n3cnc4ccc(Cl)cc43)nc2n1C1CCOCC1 and N#Cc1ccc2ncn(-c3nc(-c4ccncc4)c4[nH]c(=O)n(C5CCOCC5)c4n3)c2c1 cannot be ordered by IC50: under 100 nM for the first, under 100 nM for the second.

Cc1nc2c(-c3ccncc3)nc(-n3cnc4ccc(Cl)cc43)nc2n1C1CCOCC1 and O=c1[nH]c2c(Oc3ccncc3)nc(-n3cnc4ccc(F)cc43)nc2n1C1CCOCC1 cannot be ordered by IC50: under 100 nM for the first, under 100 nM for the second.

O=c1[nH]c2c(N3CCCC(F)(F)C3)nc(-n3cnc4ccc(F)cc43)nc2n1C1CCOCC1 and O=c1[nH]c2c(N3CC[C@H](F)C3)nc(-n3cnc4ccc(F)cc43)nc2n1C1CCOCC1 cannot be ordered by IC50: under 100 nM for the first, under 100 nM for the second.

N#Cc1ccc2ncn(-c3nc(N4CC(F)(F)C4)c4[nH]c(=O)n(Cc5cccnc5)c4n3)c2c1 and COCCCn1c(=O)[nH]c2c(N3CC(F)(F)C3)nc(-n3cnc4ccc(C#N)cc43)nc21 cannot be ordered by IC50: under 100 nM for the first, under 100 nM for the second.

Compared with CCOC(=O)c1nc(-n2cnc3ccc(F)cc32)nc2c1[nH]c(=O)n2C1CCOc2ccccc21 (centres unmarked), O=c1[nH]c2c(CO)nc(-n3cnc4ccc(F)cc43)nc2n1C1CCOc2ccccc21 (centres unmarked) is lower in IC50: 100 to 1000 nM for the first, under 100 nM for the second.

CO[C@H]1CC[C@H](n2c(=O)[nH]c3c(N4CC(F)(F)C4)nc(-n4cnc5ccc(C#N)cc54)nc32)CC1 and Cn1c(=O)n([C@H]2CC[C@H](O)CC2)c2nc(-n3cnc4ccc(Cl)cc43)nc(N3CCC(F)(F)CC3)c21 cannot be ordered by IC50: under 100 nM for the first, under 100 nM for the second.

COc1ccc(-c2nc(-n3cnc4ccc(F)cc43)nc3c2[nH]c(=O)n3C2CCOCC2)cn1 and O=c1[nH]c2c(-c3cncnc3)nc(-n3cnc4ccc(F)cc43)nc2n1C1CCOCC1 cannot be ordered by IC50: under 100 nM for the first, under 100 nM for the second.

N#Cc1ccc(-c2nc(-n3cnc4ccc(F)cc43)nc3c2[nH]c(=O)n3[C@@H]2CCOc3c(F)cccc32)cc1 and CCOC(=O)CCc1nc(-n2cnc3ccc(F)cc32)nc2c1[nH]c(=O)n2[C@@H]1CCOc2c(F)cccc21 fall in the same range of IC50: 100 to 1000 nM for the first, 100 to 1000 nM for the second.

Cn1c(=O)n([C@H]2CC[C@H](O)CC2)c2nc(-n3cnc4ccc(Cl)cc43)nc(N3CC[C@@H](F)C3)c21 and Cn1c(=O)n([C@H]2CC[C@H](O)CC2)c2nc(-n3cnc4ccc(F)cc43)nc(N3CCC3)c21 cannot be ordered by IC50: under 100 nM for the first, under 100 nM for the second.

CC(C)(C)OC(=O)NCCCNc1nc(-n2cnc3ccc(C#N)cc32)nc2c1[nH]c(=O)n2C1CCOCC1 and COCCCNc1nc(-n2cnc3ccc(Cl)cc32)nc2c1[nH]c(=O)n2C1CCOCC1 cannot be ordered by IC50: under 100 nM for the first, under 100 nM for the second.

O=c1[nH]c2c(-c3cccc4[nH]ccc34)nc(-n3cnc4ccc(F)cc43)nc2n1C1CCOCC1 and Cn1c(=O)n([C@H]2CC[C@H](O)CC2)c2nc(-n3cnc4ccc(C#N)cc43)nc(-c3ccncc3)c21 cannot be ordered by IC50: under 100 nM for the first, under 100 nM for the second.

Source: patent US7902187B2, “6-substituted 2-(benzimidazolyl)purine and purinone derivatives for immunosuppression” (Wyeth LLC, priority 2006, dated 2011)
